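96-well plates; 48 h exposure; 5 concentrations. Endpoints by linear interpolation between flanking doses. Not reached: highest tested concentration assigned. Definition used: TGI = concentration required for complete inhibition of growth.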
How the values were obtained:
Experiment in all cases: inhibition of tumour cell growth, NCI panel, 48 h
[1] = test system: NCI-H23 lung
[2] = test system: A549 NSCLC
[3] = test system: MDA-N
[4] = test system: DMS 273 small cell lung
[5] = test system: NCI/ADR-RES ovarian
[6] = test system: OVCAR-8 ovarian
[7] = test system: MDA-MB-435
[8] = test system: IGROV1 ovarian
[9] = test system: KM12 colon
[10] = test system: M19-MEL melanoma
[11] = test system: CCRF-CEM leukemia
[12] = test system: DMS 114 small cell lung
[13] = test system: SK-MEL-2 melanoma
[14] = test system: MOLT-4 leukemia
[15] = test system: HOP-92 NSCLC
[16] = test system: OVCAR-4 ovarian
[17] = test system: NCI-H226 lung
[18] = test system: HCC-2998 colon
[19] = test system: DLD-1 colon
[20] = test system: SNB-19 CNS
[21] = test system: U251 CNS
[22] = test system: HCT-116 colon
[23] = test system: A498 renal
[24] = test system: M14 melanoma
[25] = test system: SF-539 CNS
[26] = test system: UACC-257 melanoma
[27] = test system: HOP-18 NSCLC
[28] = test system: SF-268 CNS
[29] = test system: COLO 205 colon
[30] = test system: SN12C renal
[31] = test system: EKVX NSCLC
[32] = test system: K-562 leukemia
[33] = test system: SW-620 colon
[34] = test system: LXFL 529 NSCLC
[35] = test system: ACHN renal
[36] = test system: OVCAR-3 ovarian
[37] = test system: HCT-15 colon
[38] = test system: SK-MEL-5 melanoma
[39] = test system: RXF 393 renal
[40] = test system: HL-60(TB) leukemia
[41] = test system: HT29 colon
[42] = test system: BT-549 breast
[43] = test system: DU-145 prostate
[44] = test system: OVCAR-5 ovarian
[45] = test system: TK-10 renal
[46] = test system: UACC-62 melanoma
[47] = test system: HS 578T breast
[48] = test system: MDA-MB-231 breast
[49] = test system: MALME-3M melanoma
[50] = test system: SNB-78 CNS
[51] = test system: RPMI-8226 leukemia
[52] = test system: NCI-H460 lung
[53] = test system: SK-MEL-28 melanoma
[54] = test system: UO-31 renal
[55] = test system: LOX IMVI melanoma
[56] = test system: SF-295 CNS
[57] = test system: NCI-H522 lung
[58] = test system: PC-3 prostate
[59] = test system: MCF7 breast
[60] = test system: 786-0 renal
[61] = test system: KM20L2 colon
[62] = test system: CAKI-1 renal
[63] = test system: HOP-62 NSCLC
[64] = test system: SNB-75 CNS
[65] = test system: XF 498 CNS
[66] = test system: SK-OV-3 ovarian
[67] = test system: SR leukemia
[68] = test system: RXF-631 renal

CCSc1nc(=[N+]2CCCC2)ss1
TGI [1]: > 79.9 µM
TGI [2]: > 100 µM
TGI [3]: > 100 µM
TGI [4]: > 100 µM
TGI [5]: > 100 µM
TGI [6]: > 100 µM
TGI [7]: 42.5 µM
TGI [8]: > 90 µM
TGI [9]: > 100 µM
TGI [10]: 27.3 µM
TGI [11]: 13.2 µM
TGI [12]: 55.5 µM
TGI [13]: > 100 µM
TGI [14]: 30 µM
TGI [15]: > 100 µM
TGI [16]: > 100 µM
TGI [17]: > 91.3 µM
TGI [18]: > 100 µM
TGI [19]: > 100 µM
TGI [20]: > 100 µM
TGI [21]: > 100 µM
TGI [22]: > 86.9 µM
TGI [23]: > 100 µM
TGI [24]: > 100 µM
TGI [25]: > 85.6 µM
TGI [26]: > 100 µM
TGI [27]: > 100 µM
TGI [28]: > 100 µM
TGI [29]: > 49.3 µM
TGI [30]: > 100 µM
TGI [31]: > 100 µM
TGI [32]: 24.1 µM
TGI [33]: > 100 µM
TGI [34]: > 100 µM
TGI [35]: > 100 µM
TGI [36]: 48.2 µM
TGI [37]: > 92.8 µM
TGI [38]: 3.55 µM
TGI [39]: > 83.3 µM
TGI [40]: 26.6 µM
TGI [41]: > 92.1 µM
TGI [42]: 95.9 µM
TGI [43]: > 100 µM
TGI [44]: > 100 µM
TGI [45]: > 100 µM
TGI [46]: 23.9 µM
TGI [47]: > 100 µM
TGI [48]: > 100 µM
TGI [49]: > 100 µM
TGI [50]: > 100 µM
TGI [51]: 22.8 µM
TGI [52]: > 100 µM
TGI [53]: > 100 µM
TGI [54]: > 100 µM
TGI [55]: 55.2 µM
TGI [56]: > 100 µM
TGI [57]: > 100 µM
TGI [58]: > 100 µM
TGI [59]: 41.1 µM
TGI [60]: > 87 µM
TGI [61]: > 100 µM
TGI [62]: > 100 µM
TGI [63]: > 100 µM
TGI [64]: > 96.6 µM
TGI [65]: > 77.9 µM
TGI [66]: > 100 µM

O=c1[nH]c(-c2ccc(-c3nc4cc([N+](=O)[O-])ccc4c(=O)[nH]3)cc2)nc2cc([N+](=O)[O-])ccc12
TGI [1]: > 100 µM
TGI [2]: > 100 µM
TGI [4]: > 100 µM
TGI [6]: > 100 µM
TGI [8]: > 100 µM
TGI [9]: > 100 µM
TGI [10]: > 100 µM
TGI [11]: > 100 µM
TGI [12]: > 100 µM
TGI [13]: > 100 µM
TGI [14]: > 100 µM
TGI [15]: > 100 µM
TGI [16]: > 100 µM
TGI [17]: > 100 µM
TGI [18]: > 100 µM
TGI [19]: > 100 µM
TGI [20]: > 100 µM
TGI [67]: > 100 µM
TGI [21]: > 100 µM
TGI [22]: > 100 µM
TGI [23]: 31.3 µM
TGI [24]: > 100 µM
TGI [25]: > 100 µM
TGI [26]: > 100 µM
TGI [29]: > 100 µM
TGI [30]: > 100 µM
TGI [31]: > 100 µM
TGI [32]: > 100 µM
TGI [33]: > 100 µM
TGI [34]: > 100 µM
TGI [35]: > 100 µM
TGI [36]: > 100 µM
TGI [37]: > 100 µM
TGI [38]: > 100 µM
TGI [39]: > 100 µM
TGI [40]: > 100 µM
TGI [41]: > 100 µM
TGI [44]: > 100 µM
TGI [45]: > 100 µM
TGI [46]: > 100 µM
TGI [68]: > 100 µM
TGI [49]: > 100 µM
TGI [50]: > 100 µM
TGI [51]: > 100 µM
TGI [52]: > 100 µM
TGI [53]: > 100 µM
TGI [54]: > 100 µM
TGI [55]: > 100 µM
TGI [56]: > 100 µM
TGI [57]: > 100 µM
TGI [60]: > 100 µM
TGI [61]: > 100 µM
TGI [62]: > 100 µM
TGI [63]: > 100 µM
TGI [64]: > 100 µM
TGI [66]: > 100 µM

CS/C(=N\c1nccs1)NC(=O)c1cccc(Cl)c1
TGI [1]: > 100 µM
TGI [2]: > 100 µM
TGI [4]: > 100 µM
TGI [6]: > 100 µM
TGI [8]: > 100 µM
TGI [9]: > 100 µM
TGI [10]: > 100 µM
TGI [11]: > 100 µM
TGI [12]: > 100 µM
TGI [13]: > 100 µM
TGI [14]: 89.6 µM
TGI [15]: > 100 µM
TGI [16]: > 100 µM
TGI [17]: > 100 µM
TGI [18]: > 100 µM
TGI [19]: > 100 µM
TGI [20]: > 100 µM
TGI [67]: > 100 µM
TGI [21]: > 100 µM
TGI [22]: > 100 µM
TGI [23]: > 100 µM
TGI [24]: > 100 µM
TGI [25]: > 100 µM
TGI [26]: > 100 µM
TGI [27]: > 100 µM
TGI [28]: > 100 µM
TGI [29]: > 100 µM
TGI [30]: > 100 µM
TGI [31]: > 100 µM
TGI [32]: > 100 µM
TGI [33]: > 100 µM
TGI [34]: > 100 µM
TGI [35]: > 100 µM
TGI [36]: > 100 µM
TGI [37]: > 100 µM
TGI [38]: > 100 µM
TGI [39]: > 100 µM
TGI [40]: > 100 µM
TGI [41]: > 100 µM
TGI [44]: > 100 µM
TGI [45]: > 100 µM
TGI [46]: > 100 µM
TGI [68]: > 100 µM
TGI [49]: > 100 µM
TGI [50]: > 100 µM
TGI [51]: > 100 µM
TGI [52]: > 100 µM
TGI [53]: > 100 µM
TGI [54]: > 100 µM
TGI [55]: > 100 µM
TGI [56]: > 100 µM
TGI [57]: > 100 µM
TGI [60]: > 100 µM
TGI [61]: > 100 µM
TGI [62]: > 100 µM
TGI [63]: > 100 µM
TGI [64]: > 100 µM
TGI [66]: > 100 µM

O=C1c2ccccc2CC1C1(O)C(=O)Nc2ccccc21 (stereo not drawn)
TGI [1]: > 100 µM
TGI [2]: > 100 µM
TGI [4]: > 100 µM
TGI [6]: > 100 µM
TGI [8]: > 100 µM
TGI [10]: > 100 µM
TGI [12]: > 100 µM
TGI [13]: > 100 µM
TGI [14]: > 100 µM
TGI [15]: > 100 µM
TGI [16]: > 100 µM
TGI [17]: > 100 µM
TGI [19]: > 100 µM
TGI [20]: > 100 µM
TGI [22]: > 100 µM
TGI [23]: > 100 µM
TGI [24]: > 100 µM
TGI [25]: > 100 µM
TGI [26]: > 100 µM
TGI [28]: > 100 µM
TGI [29]: > 100 µM
TGI [30]: > 100 µM
TGI [31]: > 100 µM
TGI [32]: > 100 µM
TGI [33]: > 100 µM
TGI [34]: > 100 µM
TGI [35]: > 100 µM
TGI [36]: > 100 µM
TGI [37]: > 100 µM
TGI [38]: > 100 µM
TGI [39]: > 100 µM
TGI [40]: > 100 µM
TGI [41]: > 100 µM
TGI [44]: > 100 µM
TGI [45]: > 100 µM
TGI [46]: > 100 µM
TGI [68]: > 100 µM
TGI [49]: > 100 µM
TGI [50]: > 100 µM
TGI [51]: > 100 µM
TGI [52]: > 100 µM
TGI [53]: > 100 µM
TGI [54]: > 100 µM
TGI [55]: > 100 µM
TGI [56]: > 100 µM
TGI [57]: > 100 µM
TGI [60]: > 100 µM
TGI [61]: > 100 µM
TGI [62]: > 100 µM
TGI [63]: > 100 µM
TGI [64]: > 100 µM
TGI [65]: > 100 µM
TGI [66]: > 100 µM
